Legend:
poliovirus = details: cited from earlier work
[1] = tested on: herpes simplex virus (type 1); details: cited from earlier work
HIV-1 = details: cited from earlier work
in vitro = details: African green monkey
[2] = tested on: VSV (New Jersey serotype); assay type: cell-based, vesicular stomatitis virus
WEEV (strain Cova 746) = assay type: cell-based, Western equine encephalitis virus
vaccinia virus = details: cited from earlier work
DENV-1 VLP = assay type: cell-based, dengue virus (DENV-1); details: 1.5 μM
SARS-CoV = details: cited from earlier work
WNV VLP = assay type: cell-based, West Nile virus; details: 1.5 μM

Structure (SMILES): O[C@H]1[C@H]2c3cc4c(cc3CN3CCC(=C[C@@H]1O)[C@H]23)OCO4 [Lycorine]
- antiviral activity (poliovirus): inhibit
- suppression of viral translation (poliovirus): ~90%
- antiviral activity [1]: inhibit
- antiviral activity (HIV-1): does not inhibit
- viability at 1.5 µM (in vitro): > 90%
- suppression of viral titer [2]: suppressed titers of neither WEEV nor VSV
- suppression of viral titer (WEEV (strain Cova 746)): suppressed titers of neither WEEV nor VSV
- antiviral activity (vaccinia virus): inhibit
- reduction of luciferase signals (DENV-1 VLP): 1200 fold
- antiviral activity (SARS-CoV): inhibit
- reduction of luciferase signals (WNV VLP): 1400 fold
